# Test results taken from patent US12016355B2, “Stevia composition” (PURECIRCLE SDN BHD, priority 2011, dated 2024).
# Read-outs that look alike come from different tables or passages of the source.
# Tests used:
# [1] = as usually found, literature; cited from earlier work
# [2] = Sweetness factor (SF) determination by trained panel in water; conditions: in water, 5% SE
# Protocol: The sweetness factors for different sweetener from all major groups were measured by tasting several concentrations of each sweetener in water by trained panel. From the sensory test at a, the concentration (%) that corresponds to the 5% sucrose equivalent (SE) sweetness were estimated and listed in Table 2. The sweetness equivalent (SE) of high intensity sweeteners (HIS) varies according to the target sugar equivalent sweetness levels, that are tested as shown in Table 3.
# [3] = Sugar equivalent sweetness of sweetener/Reb B combinations in plain water, trained panel; conditions: plain water
# Protocol: In one embodiment, Reb B was combined (at 50, 150 and 300 ppm) with several sweeteners listed in Table 2 to make solutions in plain water. Some of the sweeteners were tested at two different concentrations to obtain around 2% sugar equivalent sweetness without any Reb B. A trained panel conducted sensory tests to determine the effect of the addition of different amounts of Reb B to each sweetener on overall sweetness quality and intensity as shown in Table 4.
# [4] = assay type: physicochemical
# Protocol: Hereinafter, unless specified otherwise the solubility of material is determined in reverse osmosis (RO) water at room temperature. Where the solubility is expressed as “%” it to be understood as number of grams of material soluble in 100 grams of solvent.
# The temperature was increased at 1° C. per minute to 121° C. The mixture was maintained at 121° C. for 1 hour and then the temperature was decreased to 80° C., at 1° C. per minute, and the obtained solution was spray dried using YC-015 laboratory spray drier (Shanghai Pilotech Instrument & Equipment Co. Ltd., China) operating at 175° C. inlet and 100° C. outlet temperature. Solution was maintained at 80° C. to prevent premature crystallization.
# Solubility were evaluated for Reb A, Reb B, mechanical blends of Reb A and Reb B powders of different ratios, and mixtures of Reb A and Reb B prepared according to process described in EXAMPLE 1.
# [5] = room temperature; reported values; cited from earlier work
compound,measurement,setting,value
C=C1C[C@@]23CC[C@H]4[C@@](C)(CCC[C@@]4(C)C(=O)O[C@@H]4O[C@H](CO)[C@@H](O)[C@H](O)[C@H]4O)[C@@H]2CC[C@]1(O[C@@H]1O[C@H](CO)[C@@H](O)[C@H](O[C@@H]2O[C@H](CO)[C@@H](O)[C@H](O)[C@H]2O)[C@H]1O[C@@H]1O[C@@H](C)[C@H](O)[C@@H](O)[C@H]1O)C3 [Rebaudioside C],times sweeter than sucrose,[1],40-60 times
OC[C@H]1O[C@H](O[C@]2(CCl)O[C@H](CCl)[C@@H](O)[C@@H]2O)[C@H](O)[C@@H](O)[C@H]1Cl [Sucralose],Calculated SF (sweetness factor),[2],602
same,"Usage Level, % (concentration corresponding to 5% sucrose equivalent sweetness)",[2],0.0083%
same,Sugar equivalent sweetness (SE) of Sweetener/Reb B combination,"[3]; 0 ppm Reb B, listed as Sucralose 83 ppm",5%
same,Sugar equivalent sweetness (SE) of Sweetener/Reb B combination,"[3]; 0 ppm Reb B, listed as Sucralose (40 ppm)",2-2.5%
same,Sugar equivalent sweetness (SE) of Sweetener/Reb B combination,"[3]; 50 ppm Reb B, listed as Sucralose 83 ppm",7%
same,Sugar equivalent sweetness (SE) of Sweetener/Reb B combination,"[3]; 50 ppm Reb B, listed as Sucralose (40 ppm)",5%
same,Sugar equivalent sweetness (SE) of Sweetener/Reb B combination,"[3]; 150 ppm Reb B, listed as Sucralose 83 ppm",11%
same,Sugar equivalent sweetness (SE) of Sweetener/Reb B combination,"[3]; 150 ppm Reb B, listed as Sucralose (40 ppm)",7.5-8%
same,Sugar equivalent sweetness (SE) of Sweetener/Reb B combination,"[3]; 300 ppm Reb B, listed as Sucralose 83 ppm",14%
same,Sugar equivalent sweetness (SE) of Sweetener/Reb B combination,"[3]; 300 ppm Reb B, listed as Sucralose (40 ppm)",11%
OC[C@H]1O[C@@](CO)(O[C@H]2O[C@H](CO)[C@@H](O)[C@H](O)[C@H]2O)[C@@H](O)[C@@H]1O [Sugar],Calculated SF (sweetness factor),[2],1
same,"Usage Level, % (concentration corresponding to 5% sucrose equivalent sweetness)",[2],5%
C=C1C[C@@]23CC[C@H]4[C@@](C)(CCC[C@@]4(C)C(=O)O[C@@H]4O[C@H](CO)[C@@H](O)[C@H](O)[C@H]4O)[C@@H]2CC[C@]1(O[C@@H]1O[C@H](CO)[C@@H](O)[C@H](O)[C@H]1O[C@@H]1O[C@@H](C)[C@H](O)[C@@H](O)[C@H]1O)C3 [Dulcoside A],times sweeter than sucrose,[1],30 times
OC[C@@H](O)[C@@H](O)CO [Erythritol],Calculated SF (sweetness factor),[2],0.67
same,"Usage Level, % (concentration corresponding to 5% sucrose equivalent sweetness)",[2],7.49%
same,Sugar equivalent sweetness (SE) of Sweetener/Reb B combination,"[3]; 0 ppm Reb B, listed as Erythritol (3.5%)",1-1.5%
same,Sugar equivalent sweetness (SE) of Sweetener/Reb B combination,"[3]; 0 ppm Reb B, listed as Erythritol (5.0%)",3%
same,Sugar equivalent sweetness (SE) of Sweetener/Reb B combination,"[3]; 50 ppm Reb B, listed as Erythritol (3.5%)",3%
same,Sugar equivalent sweetness (SE) of Sweetener/Reb B combination,"[3]; 50 ppm Reb B, listed as Erythritol (5.0%)",4%
same,Sugar equivalent sweetness (SE) of Sweetener/Reb B combination,"[3]; 150 ppm Reb B, listed as Erythritol (3.5%)",5.5-6%
same,Sugar equivalent sweetness (SE) of Sweetener/Reb B combination,"[3]; 150 ppm Reb B, listed as Erythritol (5.0%)",8%
same,Sugar equivalent sweetness (SE) of Sweetener/Reb B combination,"[3]; 300 ppm Reb B, listed as Erythritol (3.5%)",9%
same,Sugar equivalent sweetness (SE) of Sweetener/Reb B combination,"[3]; 300 ppm Reb B, listed as Erythritol (5.0%)",9.5%
OC[C@@H](O)[C@@H](O[C@H]1O[C@H](CO)[C@@H](O)[C@H](O)[C@H]1O)[C@H](O)[C@@H](O)CO [Maltitol],Calculated SF (sweetness factor),[2],0.77
same,"Usage Level, % (concentration corresponding to 5% sucrose equivalent sweetness)",[2],6.44%
same,Sugar equivalent sweetness (SE) of Sweetener/Reb B combination,[3]; 0 ppm Reb B,5%
same,Sugar equivalent sweetness (SE) of Sweetener/Reb B combination,[3]; 50 ppm Reb B,6%
same,Sugar equivalent sweetness (SE) of Sweetener/Reb B combination,[3]; 150 ppm Reb B,9%
same,Sugar equivalent sweetness (SE) of Sweetener/Reb B combination,[3]; 300 ppm Reb B,12%
"C[C@H](CC[C@@H](O[C@@H]1O[C@H](CO[C@@H]2O[C@H](CO)[C@@H](O)[C@H](O)[C@H]2O)[C@@H](O)[C@H](O)[C@H]1O[C@@H]1O[C@H](CO)[C@@H](O)[C@H](O)[C@H]1O)C(C)(C)O)[C@H]1CC[C@@]2(C)[C@@H]3CC=C4[C@@H](CC[C@H](O[C@@H]5O[C@H](CO[C@@H]6O[C@H](CO)[C@@H](O)[C@H](O)[C@H]6O)[C@@H](O)[C@H](O)[C@H]5O)C4(C)C)[C@]3(C)[C@H](O)C[C@]12C [Mogroside V (70%), Mogroside V]",Calculated SF (sweetness factor),[2],236
same,"Usage Level, % (concentration corresponding to 5% sucrose equivalent sweetness)",[2],0.0212%
same,Sugar equivalent sweetness (SE) of Sweetener/Reb B combination,"[3]; 0 ppm Reb B, listed as Mogroside V (100 ppm)",2.5%
same,Sugar equivalent sweetness (SE) of Sweetener/Reb B combination,"[3]; 0 ppm Reb B, listed as Mogroside V (212 ppm)",5.5-6%
same,Sugar equivalent sweetness (SE) of Sweetener/Reb B combination,"[3]; 50 ppm Reb B, listed as Mogroside V (100 ppm)",4%
same,Sugar equivalent sweetness (SE) of Sweetener/Reb B combination,"[3]; 50 ppm Reb B, listed as Mogroside V (212 ppm)",7%
same,Sugar equivalent sweetness (SE) of Sweetener/Reb B combination,"[3]; 150 ppm Reb B, listed as Mogroside V (100 ppm)",5.5%
same,Sugar equivalent sweetness (SE) of Sweetener/Reb B combination,"[3]; 150 ppm Reb B, listed as Mogroside V (212 ppm)",9%
same,Sugar equivalent sweetness (SE) of Sweetener/Reb B combination,"[3]; 300 ppm Reb B, listed as Mogroside V (100 ppm)",8-8.5%
same,Sugar equivalent sweetness (SE) of Sweetener/Reb B combination,"[3]; 300 ppm Reb B, listed as Mogroside V (212 ppm)",10-10.5%
Rebaudioside D [Reb D],Calculated SF (sweetness factor),[2],291
same,"Usage Level, % (concentration corresponding to 5% sucrose equivalent sweetness)",[2],0.0172%
same,water solubility,[4],0.03%
same,water solubility,[5],0.01-0.05%
